The source of these data is US4472428A, “Halogenated prostacyclins pharmaceutical use thereof and hydroxy intermediates therefore” (Teijin Limited, priority 1980, dated 1984).

In brackets after ≈: the same amount, converted by molar mass. Where two headings read alike, the source gives them in different places.

One data set has as its system blood pressure. As to the kind of experiment: hypotensive activity, intravenous injection in anesthetized rats. In kind it is in vivo, rats (male wister). To be noted: Rattus norvegicus, iv, anesthetized rats; read-out: P-ED20 (dosage causing a 20% lowering of the mean blood pressure). Here is the method: (§1) Measurement of the hypotensive activity:
(§2) The actions of the prostacyclin derivatives of the invention on the blood pressure and heart rate of rats were examined by intravenous injection under anesthesia.
(§3) Male wister rats weighing about 250 g were used. Urethane (500 mg/kg) and α-chloralose (100 mg/kg) were intraperitoneally administered to the rats. The rats were anesthetized and fixed in place.
(§4) Each of the test compounds was dissolved in a small amount of ethanol and diluted with 0.05M Tris buffer saline (pH 9) to adjust the final ethanol concentration to not more than 5%. The solution was intravenously injected into the rats through a catheter inserted into the femoral vein.
(§5) The blood pressure of the rats was measured by a pressure transducer through a catheter inserted into the carotid artery of the rats. The heart rate was determined from the blood pressure pulse.
(§6) The action of the test compound on the blood pressure was expressed as the dosage (P-ED20, μg/kg) of the test compound which caused a 20% lowering of the mean blood pressure before administration of the compound. The action of the test compound on the heart rate was expressed as the dosage (H-ED10, μg/kg) of the test compound which caused a 10% increase of the heart rate from the heart rate before administration of the test compound.

Another data set relates to heart rate. As to the kind of experiment: action on heart rate, intravenous injection in anesthetized rats. As to conditions: Rattus norvegicus, i.v., read-out: H-ED10 (dosage causing a 10% increase of the heart rate). In kind it is in vivo, rats (male wister). The procedure:
as §1, §2, §3, §4, §5, §6

The next data set concerns platelet aggregation. Put plainly: in vitro inhibitory activity of platelet aggregation (ADP-induced, rabbit PRP). In kind it is cell-based, rabbit (Japanese domestic white male). As to conditions: Oryctolagus cuniculus, Platelet, rabbit PRP, 10 μM ADP, 37° C., read-out: IC50 (minimum concentration which inhibited more than 50% of platelet aggregation). The procedure:
(1) in vitro inhibitory activity of platelet aggregation:
The in vitro platelet aggregation inhibiting activities of the compounds of the invention were examined by using rabbits. Blood was withdrawn from the ear vein of Japanese domestic white male rabbits weighing 2.5 to 3.5 kg. A mixture of a 3.8% trisodium citrate solution and the blood in a ratio of 1:9 was centrifuged at a speed of 1000 rpm for 10 minutes. The upper layer was separated as platelet-rich plasma (PRP). The lower layer was further centrifuged at a speed of 2800 rpm for 10 minutes. The upper layer was separated as platelet-poor plasma (PPP). The number of platelets was adjusted to 6×10^5 /μl to 7×10^5 /μl by diluting the PRP with PPP. 25 microliters of the test compounds prepared as shown below was added in an amount of 25 to 250 microliters of PRP after the adjustment, and the mixture was pre-incubated at 37° C. for 2 minutes, and then 10 μM (final) of ADP was added. By using an aggregometer, changes in transmission were recorded.
The drug was dissolved in ethanol to a concentration of 10 mg/ml. When its activity was measured, it was used after being diluted with phosphate buffer (pH 7.4). Furthermore, after dilution with the buffer, the drug was left to stand at 0° C. for 4 hours, and the activity of the drug was similarly measured.
The rate of inhibition of platelet aggregation was determined from the following equation.
Inhibition rate (%)=(1-T/To)×100
To : the transmittance of the system containing the phosphate buffer,
T: the transmittance of the system to which the test drug was added.
The minimum concentration of the drug which inhibited more than 50% of platelet aggregation was shown as an IC50 value.

Data set [1] deals with blood pressure / platelet aggregation. Put plainly: ratio of the blood pressure lowering activity and the platelet aggregation inhibiting activity. Also on record: species or system rats (blood pressure); rabbits (platelets). As to conditions: P-ED20 rats i.v.; IC50 rabbit platelets in vitro. Here is the method: (2) From the results obtained in Examples 100 and 101, the ratio of the blood pressure lowering activity and the platelet aggregation inhibiting activity was calculated. The result is shown in Table 3 together with the ratio obtained with PGI2.

The conditions of data set [2]: cited from earlier work.
In data set [3] the test system is platelet aggregation / blood pressure. As to conditions: cited from earlier work.
Data set [4] has as its system 15-position dehydrogenase. To be noted: cited from earlier work.

On to `CCCCC[C@H](O)/C=C/[C@@H]1[C@H]2C/C(=C/CCCC(=O)O)O[C@H]2C[C@H]1O` [PGI2, Prostaglandin I2, reference compound], for which, in the data set with blood pressure, the ED20 is 0.02 µg/kg. In addition, the ED10 in the data set on heart rate was determined as 0.04 µg/kg. In addition, the IC50 with platelet aggregation (0 hr) worked out at 0.0047 µg/mL (≈ 0.0133 µM); in the data set with platelet aggregation (4 hr standing at 0° C. after dilution with phosphate buffer pH 7.4), 0.56 µg/mL (≈ 1.59 µM). For the same compound, the “P-ED20 / platelet IC50” value in data set [1] was 4.3. Further, the “half period of its activity at physiological pH” value in data set [2] is “only about several minutes”. For the same compound, in data set [3], the “doses required for platelet aggregation inhibiting action and antihypertensive action” value is “almost equal to each other”. The metabolism in vivo result in data set [4] is listed as “rapidly metabolized by a 15-position dehydrogenase”.
